Measurements reported in US7618996B2, “Diaryl ether derivatives and uses thereof” (Pfizer Inc., priority 2006, dated 2009).
Structures can show the parent of a compound that is named as a salt.

Tests used:
delta opioid receptor [1] = biological target: T1, delta opioid receptor (Homo sapiens, UniProt P41143); test: GTPγ[35S] binding assay at delta opioid receptor (antagonist vs BW-373U86); type: biochemical; design: expressed in transfected cells; conditions: average Ki; membranes, challenged with BW-373U86 (1 nM)
Protocol: (§1) GTPγ[^35S] Binding Assays at Opioid Receptors
(§2) Membranes were prepared from cells as described (Bass et al, 1996). GTPγ[^35S] binding assays were performed in a 96 well FlashPlate™ format in duplicate using 100 pM GTPγ[^35S] and 5 μg membrane per well in assay buffer composed of 50 mM Tris HCl, pH 7.4, 5 mM MgCl2, 1 mM EDTA, 100 mM NaCl, 30 μM GDP, 0.1% bovine serum albumin and the following protease inhibitors: 100 μg/ml bacitracin, 100 μg/ml benzamidine, 5 μg/ml aprotinin, 5 μg/ml leupeptin. The assay mix was then incubated at 30° C. with increasing concentrations of antagonist (10^−10 M to 10^−5 M) for 10 minutes and challenged with the agonists BW-373U86 (1 nM), dynorphin-A (10 nM), β-endorphin (1 μM) for opioid receptors delta, kappa, and mu, respectively. The assays were performed at 30° C. for one hour. The FlashPlates were then centrifuged at 2000×g for 10 minutes. Stimulation of GTPγ[^35S] binding was then quantified using a Wallac Microbeta and Ki calculations were done using Prism™ by Graphpad. […] Each of the compounds listed below were tested as their hydrochloride salts unless indicated otherwise. Those Example Numbers with an asterisk (*) were tested as their free base.

mu opioid receptor [2] = biological target: T2, mu opioid receptor (Homo sapiens, UniProt P35372); test: GTPγ[35S] binding assay at mu opioid receptor (antagonist vs β-endorphin); type: biochemical; design: expressed in transfected cells; conditions: average Ki; membranes, challenged with β-endorphin (1 μM)
Protocol: as §1, §2

kappa opioid receptor [3] = biological target: T3, kappa opioid receptor (Homo sapiens, UniProt P41145); test: GTPγ[35S] binding assay at kappa opioid receptor (antagonist vs dynorphin-A); type: biochemical; design: expressed in transfected cells; conditions: average Ki; membranes, challenged with dynorphin-A (10 nM)
Protocol: as §1, §2

kappa opioid receptor [4] = biological target: T3, kappa opioid receptor; conditions: literature (Statnick 2003; Zimmerman 1993); cited from earlier work
delta opioid receptor [5] = biological target: T1, delta opioid receptor; conditions: compared with mu and kappa; literature; cited from earlier work
mu opioid receptor [6] = biological target: T2, mu opioid receptor; conditions: literature (Statnick 2003; Zimmerman 1993); cited from earlier work
[7] = literature (Shaw 1991, 1993; Levine 1991); cited from earlier work
[8] = Pharmacokinetic experiment, IV in rats; type: in vivo, rat; conditions: male JVC/CAC rats, 1 mg/kg IV; for half-life / clearance / Vd: rat, plasma; for clearance: average of two rats; for Vd: read-out: volume of distribution
Protocol: A representative compound of the present invention (Example 1A) and a comparator compound (Example 2A) were individually dosed into two different male JVC/CAC rats at 1 mg/kg in a 10% ethanol and 90% (30% beta-cyclodextrin sulfobutylether) vehicle. Blood was subsequently collected at 0.083, 0.25, 0.5, 1, 2, 4, 6, 8 and 20 hours post IV administration. After spinning the blood samples down to get plasma, the plasma concentrations were determined by LC/MS/MS. The pharmacokinetic (PK) analysis was determined by inputting the resultant time concentration data into a Watson™ Laboratory Information Management System (LIMS).

T2 sequence (P35372 whole entry): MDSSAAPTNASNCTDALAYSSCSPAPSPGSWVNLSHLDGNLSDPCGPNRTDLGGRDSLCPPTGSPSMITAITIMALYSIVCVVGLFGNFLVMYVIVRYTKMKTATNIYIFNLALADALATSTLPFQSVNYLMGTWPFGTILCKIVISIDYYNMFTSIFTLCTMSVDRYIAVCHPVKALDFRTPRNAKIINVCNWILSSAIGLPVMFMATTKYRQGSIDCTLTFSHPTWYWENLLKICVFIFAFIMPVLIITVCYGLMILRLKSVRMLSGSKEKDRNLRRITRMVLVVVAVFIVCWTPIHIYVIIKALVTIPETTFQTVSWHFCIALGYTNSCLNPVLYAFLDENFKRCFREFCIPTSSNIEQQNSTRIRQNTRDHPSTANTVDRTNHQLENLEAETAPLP
T3 sequence (P41145 whole entry): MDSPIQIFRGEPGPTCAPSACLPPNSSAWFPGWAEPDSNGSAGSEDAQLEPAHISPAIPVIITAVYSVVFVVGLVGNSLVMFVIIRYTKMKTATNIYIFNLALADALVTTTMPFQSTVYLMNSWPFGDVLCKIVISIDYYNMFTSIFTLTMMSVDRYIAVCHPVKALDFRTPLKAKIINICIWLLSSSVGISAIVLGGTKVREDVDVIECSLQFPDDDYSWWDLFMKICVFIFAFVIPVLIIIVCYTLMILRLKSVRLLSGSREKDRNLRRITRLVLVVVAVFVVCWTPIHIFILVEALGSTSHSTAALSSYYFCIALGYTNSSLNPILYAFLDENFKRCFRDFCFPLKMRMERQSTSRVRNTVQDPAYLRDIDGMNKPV
T1 sequence (P41143 whole entry): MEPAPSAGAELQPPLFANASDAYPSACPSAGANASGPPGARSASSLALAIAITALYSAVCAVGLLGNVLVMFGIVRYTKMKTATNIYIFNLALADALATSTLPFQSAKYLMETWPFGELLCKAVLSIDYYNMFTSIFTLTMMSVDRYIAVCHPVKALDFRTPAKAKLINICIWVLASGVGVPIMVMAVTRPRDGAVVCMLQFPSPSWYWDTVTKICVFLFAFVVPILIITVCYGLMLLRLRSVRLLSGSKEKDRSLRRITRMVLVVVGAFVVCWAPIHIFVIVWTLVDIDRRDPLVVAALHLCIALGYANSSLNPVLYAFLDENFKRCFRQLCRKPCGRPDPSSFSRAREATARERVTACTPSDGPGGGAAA

| Structure (SMILES) | Ki (delta opioid receptor [1]) | Ki (mu opioid receptor [2]) | Ki (kappa opioid receptor [3]) | further results |
| --- | --- | --- | --- | --- |
| CC(C)OCCNCc1ccc(Oc2ccc(C(N)=O)c(O)c2)c(F)c1 [Example 3C] | 1.68 nM | 1.65 nM | 3.78 nM |  |
| CC1CNCCC1(C)c1cccc(O)c1 (stereo not shown) [LY515300, 3,4-dimethyl-4-(3-hydroxyphenyl)piperidine] |  |  |  | binding affinity for the kappa-opioid receptor subtype (kappa opioid receptor [4]): sub-nanomolar; affinity for the delta-opioid receptor (delta opioid receptor [5]): lower affinity; binding affinity for the mu-opioid receptor subtype (mu opioid receptor [6]): sub-nanomolar |
| NC(=O)c1ccc(Oc2ccc(CNCC3CCOCC3)cc2F)cc1O [Example 3H] | 3.02 nM | 4.9 nM | 1.56 nM |  |
| NC(=O)c1ccc(Oc2ccc(CNC[C@@H]3CCCO3)cc2F)cc1O [Example 3F] | 2.23 nM | 0.855 nM | 0.235 nM |  |
| C[C@H]1CN(CC[C@H](O)C2CCCCC2)CC[C@@]1(C)c1cccc(O)c1 [LY255582] |  |  |  | anorectic effects [7]: robust anorectic effects |
| NC(=O)c1ccc(Oc2ccc(CNCC3(O)CCCCC3)cc2F)cc1O [Example 3I] | 3.33 nM | 0.158 nM | 0.215 nM |  |
| CC(C)CCNCc1ccc(Oc2ccc(C(N)=O)c(O)c2)c(F)c1 [Example 1A, 4-(2-fluoro-4-{[(3-methylbutyl)amino]methyl}phenoxy)-2-hydroxybenzamide, hydrochloride salt] | 0.64 nM | 0.335 nM | 0.652 nM | half-life [8]: 2.9 h; clearance [8]: 18.6 mL/min/kg; Vd [8]: 2 L/kg |
| NC(=O)c1ccc(Oc2ccc(CNCC3CCCO3)cc2F)cc1O (stereo not shown) [Example 3E] | 3.25 nM | 1.17 nM | 0.47 nM |  |
| NC(=O)c1ccc(Oc2ccc(CNC3Cc4ccccc4C3)cc2F)cc1O [Example 3B] | 0.041 nM | 0.00412 nM | 0.0348 nM |  |
| CC(C)CCNCc1ccc(Oc2cccc(O)c2)c(F)c1.Cl [Example 2A, 3-(2-fluoro-4-{[(3-methylbutyl)amino]-methyl}phenoxy)phenol, hydrochloride salt] | 25.4 nM | 16.7 nM | 47.1 nM | clearance relative to hepatic blood flow [8]: approximately 5 times hepatic blood flow; half-life [8]: 0.7 h; clearance [8]: 361 mL/min/kg; Vd [8]: 10 L/kg |
| NC(=O)c1ccc(Oc2ccc(CNCCC3CC3)cc2F)cc1O [Example 3A, 4-(4-{[(2-cyclopropylethyl)amino]methyl}-2-fluorophenoxy)-2-hydroxybenzamide, hydrochloride salt] | 0.62 nM | 0.312 nM | 0.39 nM |  |
| NC(=O)c1ccc(Oc2ccc(CNC[C@H]3CCCO3)cc2F)cc1O [Example 3G] | 10.3 nM | 3.91 nM | 1.09 nM |  |
| NC(=O)c1ccc(Oc2ccc(CNCCOc3ccccc3)cc2F)cc1O [Example 3D] | 0.687 nM | 0.92 nM | 5.35 nM |  |

Continued, in another order:

| Ki (delta opioid receptor [1]) | Ki (mu opioid receptor [2]) | Ki (kappa opioid receptor [3]) | Structure (SMILES) | further results |
| --- | --- | --- | --- | --- |
| 4.87 nM | 0.346 nM | 0.184 nM | NC(=O)c1ccc(Oc2c(F)cc(CNC[C@@H]3CCCO3)cc2F)cc1O [Example 4D] |  |
| 0.352 nM | 0.0963 nM | 0.419 nM | NC(=O)c1ccc(Oc2c(F)cc(CNCCC3CCOCC3)cc2F)cc1O [Example 4E] |  |
| 16.6 nM | 26.2 nM | 13.8 nM | CC[C@@H](NCc1ccc(Oc2ccc(C(N)=O)c(O)c2)c(F)c1)c1ccccn1 [Example 3J] |  |
| 0.465 nM | 0.094 nM | 0.164 nM | CC(C)CCNCc1cc(F)c(Oc2ccc(C(N)=O)c(O)c2)c(F)c1 [Example 4A, 4-(2,6-difluoro-4-{[(3-methybutyl)amino]methyl}phenoxy)-2-hydroxybenzamide] |  |
| 0.866 nM | 0.0772 nM | 0.0731 nM | NC(=O)c1ccc(Oc2c(F)cc(CNC3CCCCC3)cc2F)cc1O [Example 4B] |  |
| 1.1 nM | 0.167 nM | 0.244 nM | NC(=O)c1ccc(Oc2c(F)cc(CNCCC3CC3)cc2F)cc1O [Example 4C] |  |
| 0.0543 nM |  | 0.0848 nM | NC(=O)c1ccc(Oc2c(F)cc(CNC3Cc4ccccc4C3)cc2F)cc1O [Example 4F] |  |
